The values that follow come from US8350062B2, “Synthesis and anticancer activity of new actin-targeting small-molecule agents” (priority 2009, dated 2013).

The subject of one series is MDA-MB-468. Briefly: NCI 60 cell line single dose screen. Particulars: MDA-MB-468 (Breast Cancer), 10 micromolar, 48 h. It is filed as cell-based, human. An excerpt: (§1) Analog 10 was screened utilizing 60 different human tumor cell lines, representing leukemia, melanoma and cancers of the lung, colon, brain, ovary, breast, prostate, and kidney in order to show selective growth inhibition or cell killing of particular tumor cell lines. This screen is unique in that the complexity of a 60 cell line dose response produced by a given compound results in a biological response pattern which can be utilized in pattern recognition algorithms (COMPARE program. See: http://dtp.nci.nih.gov/docs/compare/compare.html). Using these algorithms, it is possible to assign a putative mechanism of action to a test compound, or to determine that the response pattern is unique and not similar to that of any of the standard prototype compounds included in the NCI database. In addition, following characterization of various cellular molecular targets in the 60 cell lines, it may be possible to select compounds most likely to interact with a specific molecular target.
(§2) The screening is a two-stage process, beginning with the evaluation of the compound against the 60 cell lines at a single dose of 10 uM.
(§3) The human tumor cell lines of the cancer screening panel are grown in RPMI 1640 medium containing 5% fetal bovine serum and 2 mM L-glutamine. For a typical screening experiment, cells are inoculated into 96 well microtiter plates in 100 μL at plating densities ranging from 5,000 to 40,000 cells/well depending on the doubling time of individual cell lines. After cell inoculation, the microtiter plates are incubated at 37° C., 5% CO2, 95% air and 100% relative humidity for 24 h prior to addition of experimental drug.
(§4) After 24 h, two plates of each cell line are fixed in situ with TCA, to represent a measurement of the cell population for each cell line at the time of drug addition (Tz). Experimental drugs are solubilized in dimethyl sulfoxide at 400-fold the desired final maximum test concentration and stored frozen prior to use. At the time of drug addition, an aliquot of frozen concentrate is thawed and diluted to twice the desired final maximum test concentration with complete medium containing 50 μg/ml gentamicin.
(§5) Following drug addition, the plates are incubated for an additional 48 h at 37° C., 5% CO2, 95% air, and 100% relative humidity. For adherent cells, the assay is terminated by the addition of cold TCA. Cells are fixed in situ by the gentle addition of […] of cold 50% (w/v) TCA (final concentration, 10% TCA) and incubated for 60 minutes at 4° C. The supernatant is discarded, and the plates are washed five times with tap water and air dried. Sulforhodamine B (SRB) solution (100 μl) at 0.4% (w/v) in 1% acetic acid is added to each well, and plates are incubated for 10 minutes at room temperature. After staining, unbound dye is removed by washing five times with 1% acetic acid and the plates are air dried. Bound stain is subsequently solubilized with 10 mM trizma base, and the absorbance is read on an automated plate reader at a wavelength of 515 nm. For suspension cells, the methodology is the same except that the assay is terminated by fixing settled cells at the bottom of the wells by gently adding 50 μl of 80% TCA (final concentration, 16% TCA). Using the absorbance measurements [time zero, (Tz), control growth, (C), and test growth in the presence of drug (Ti)], the percentage growth is calculated.

Another series has as its system IGROV1. Briefly: NCI 60 cell line single dose screen. It is filed as cell-based, human. Particulars: IGROV1 (Ovarian Cancer), 10 micromolar, 48 h.
Excerpt: as §1, §2, §3, §4, §5

For another series, the system named is PC-3. Briefly: NCI 60 cell line single dose screen. The class given is cell-based, human. Conditions: PC-3 (Prostate Cancer), 10 micromolar, 48 h.
Excerpt: as §1, §2, §3, §4, §5

For another series, the system named is MDA-MB-231/ATCC. Briefly: NCI 60 cell line single dose screen. It is filed as cell-based, human. Particulars: MDA-MB-231/ATCC (Breast Cancer), 10 micromolar, 48 h.
Excerpt: as §1, §2, §3, §4, §5

The subject of a further series is SF-539. As to the kind of experiment: NCI 60 cell line single dose screen. The class given is cell-based, human. Conditions: SF-539 (CNS Cancer), 10 micromolar, 48 h.
Excerpt: as §1, §2, §3, §4, §5

In a further series the test system is SK-OV-3. As to the kind of experiment: NCI 60 cell line single dose screen. The class given is cell-based, human. Particulars: SK-OV-3 (Ovarian Cancer), 10 micromolar, 48 h.
Excerpt: as §1, §2, §3, §4, §5

The next series has as its system DU-145. Briefly: NCI 60 cell line single dose screen. The class given is cell-based, human. Particulars: DU-145 (Prostate Cancer), 10 micromolar, 48 h.
Excerpt: as §1, §2, §3, §4, §5

Another series relates to A549 tumor xenografts. Briefly: A549 tumor xenograft growth in nude athymic mice. The class given is in vivo. Conditions: 20 mg/kg i.p. on 3rd, 5th and 7th day. As for the experimental part:
Initially, we established that 10 had no observed toxicity in mice up to 50 mg/kg a single dose administered i.p. Toxicity was assessed by daily weight measurements and mouse behavior compared to non-injected mice. Next, we established tumor xenografts by injecting A549 cells subcutaneously into two groups of nude athymic mice (6 animals per group). The first group was injected only with DMSO control. The second group of animals received three i.p. doses of analog 10 (20 mg/kg) on the 3rd, 5th and 7th day after the initial tumor challenge. Tumor growth was monitored over a period of five weeks. The tumor grew rapidly in the control mice population and reached an average size of 731 mm^3 at the end of 4 weeks. […] The average tumor size for this population was 308 mm^3 after 4 weeks.
A population of 22 nude athymic mice was injected subcutaneously with A549 cells (10^7 cells in 100 μl PBS each). A subpopulation of 12 mice was injected with analog 10 in 1% DMSO at 20 mg/kg on the 3rd, 5th and 7th day following treatment with A549 cells. A control population of 10 mice was injected with 1% DMSO. Tumor growth was measured over 5 weeks.

Series [1] deals with 60 different human tumor cell lines. As to the kind of experiment: NCI 60 cell line single dose screen, whole panel. The class given is cell-based. Conditions: 10 micromolar, mean over cell lines.
Excerpt: as §1, with “In addition, following characterization of various cellular molecular targets in the 60 cell lines, it may be possible to select compounds most likely to interact with a specific molecular target.” left out
Following drug addition, the plates are incubated for an additional 48 h at 37° C., 5% CO2, 95% air, and 100% relative humidity. […] Bound stain is subsequently solubilized with 10 mM trizma base, and the absorbance is read on an automated plate reader at a wavelength of 515 nm. […] Using the absorbance measurements [time zero, (Tz), control growth, (C), and test growth in the presence of drug (Ti)], the percentage growth is calculated.

The subject of another series is F-actin in A549 cells. Briefly: Fluorescent visualization of F-actin in A549 cells (Alexa Fluor 488 phalloidin). The class given is cell-based, human. As for the experimental part: The presence of the enone increased the severing efficiency of the analogs three-fold. […] We determined whether it was the depletion of actin filaments by analogs 2-5 which was responsible for the growth inhibition of A549 cells. Each of the compounds was incubated with A549 cells for 2 h at a concentration that exceeded the GI50 value by a factor of 5. The cells were then fixed, permeabilized and filamentous actin was visualized by fluorescence microscopy following Alexa Fluor 488 phalloidin staining. […] They induced depolymerization at 150 nM for bistramide A (1), 500 nM for analog 2 and 2 μM for analog 3. Analogs 4 and 5 induced depolymerization of actin only at concentrations as high as 100 μM. […] This observation was consistent with the enhanced cell-based activity of the compounds containing the C(1)-C(4) enone moiety.
Fluorescent Visualization Of F-Actin In Cells. A549 cells grown on coverslips were incubated with analogs 4-8 (100 μM) analog 3 (2 μM) or analog 2 (500 nM) or bistramide A (150 nM) in F-12K cell culture medium for 2 h, fixed with 3% formaldehyde in PBS at 25° C. for 5 min and permeabilized with 0.1% Triton X-100 at 25° C. for 10 min. After washing with PBS, coverslips were stained with Alexa Fluor 488 Phalloidin and visualized by fluorescence microscopy.

Structures are written as SMILES.

For `COCCC(=O)NC[C@H](O)[C@H](C)C(=O)NCCC[C@H]1O[C@@]2(CCC[C@@H](CC[C@H](C)/C=C(\C)[C@H](C)O)O2)CCC1C` (stereo partly shown) [Analog 10], the “Growth Percent” value in the series with MDA-MB-468 is reported as 29.03%; in the series on IGROV1 it was 17.52%; with PC-3, 66.25%; in the series on MDA-MB-231/ATCC it was 43.18%; with SF-539 it was 40.64%; in the series with SK-OV-3, 59.10%. For the same compound, the “Growth Percent” value in the series on DU-145 came to 54.89%. Also, the drug-based cytotoxicity entry in the series on A549 tumor xenografts was “no significant drug-based cytotoxicity was observed”. Also, in the series with A549 tumor xenografts, the tumor growth result was “substantially inhibited”. Further, the average tumor size in the series on A549 tumor xenografts (after 4 weeks) worked out at 308 mm^3. Besides, the “Growth Percent, Mean” value in series [1] is 50.03%. In addition, the “F-actin depolymerization in A549 cells” value with F-actin in A549 cells is “depolymerized F-actin in A549 cells in a dose-dependent manner”. Also, in the series on F-actin in A549 cells (A549 cells), the “concentration at which noticeable actin disassembly was detected” value is recorded as 250 nM.
